{"source": "paper PMC6230393", "about": "“Enhancing TFEB-Mediated Cellular Degradation Pathways by the mTORC1 Inhibitor Quercetin” (Oxidative Medicine and Cellular Longevity, 2018)", "molecular_target": "mTOR (Homo sapiens, UniProt P42345)", "assay": "LanthaScreen TR-FRET in vitro kinase assay, purified mTOR (PV4753), GFP-4E-BP1 substrate, […] ATP, […] MnCl2", "assay_type": "biochemical", "data": [{"smiles": "O=c1c(O)c(-c2ccc(O)c(O)c2)oc2cc(O)cc(O)c12", "note": "[quercetin, 3,3′,4′,5,7-pentahydroxyflavone]", "values": [{"measurement": "IC50", "value": 7.8, "unit": "µM"}]}]}
